# Test results taken from US5424456A, “N-arylalkylderivatives of 2-aminomethyl-2,3-dihydro-1,4-benzodioxine and the process of preparation thereof” (Vyzkumny Ustav Pro Farmacii A Biochemii s.p., priority 1991, dated 1995).
# pIC50: −log10 of the molar value. Read-outs that look alike come from different tables or passages of the source.
# Tests used:
# calcium channel = target: T1, calcium channel (Rattus norvegicus, UniProt P22002); assay: Calcium channel blocking activity, K+ depolarization-induced contraction of helically cut rat aortic strip; conditions: Krebs-Henselheit solution, 37° C., cumulative doses, read-out: IC50 (50% decrease of contraction of the aortic strip)
# T1 construct: helically cut rat aortic strip; from tissue; host or cells: rat aorta (helically cut strip)
# T1 sequence (P22002 whole entry): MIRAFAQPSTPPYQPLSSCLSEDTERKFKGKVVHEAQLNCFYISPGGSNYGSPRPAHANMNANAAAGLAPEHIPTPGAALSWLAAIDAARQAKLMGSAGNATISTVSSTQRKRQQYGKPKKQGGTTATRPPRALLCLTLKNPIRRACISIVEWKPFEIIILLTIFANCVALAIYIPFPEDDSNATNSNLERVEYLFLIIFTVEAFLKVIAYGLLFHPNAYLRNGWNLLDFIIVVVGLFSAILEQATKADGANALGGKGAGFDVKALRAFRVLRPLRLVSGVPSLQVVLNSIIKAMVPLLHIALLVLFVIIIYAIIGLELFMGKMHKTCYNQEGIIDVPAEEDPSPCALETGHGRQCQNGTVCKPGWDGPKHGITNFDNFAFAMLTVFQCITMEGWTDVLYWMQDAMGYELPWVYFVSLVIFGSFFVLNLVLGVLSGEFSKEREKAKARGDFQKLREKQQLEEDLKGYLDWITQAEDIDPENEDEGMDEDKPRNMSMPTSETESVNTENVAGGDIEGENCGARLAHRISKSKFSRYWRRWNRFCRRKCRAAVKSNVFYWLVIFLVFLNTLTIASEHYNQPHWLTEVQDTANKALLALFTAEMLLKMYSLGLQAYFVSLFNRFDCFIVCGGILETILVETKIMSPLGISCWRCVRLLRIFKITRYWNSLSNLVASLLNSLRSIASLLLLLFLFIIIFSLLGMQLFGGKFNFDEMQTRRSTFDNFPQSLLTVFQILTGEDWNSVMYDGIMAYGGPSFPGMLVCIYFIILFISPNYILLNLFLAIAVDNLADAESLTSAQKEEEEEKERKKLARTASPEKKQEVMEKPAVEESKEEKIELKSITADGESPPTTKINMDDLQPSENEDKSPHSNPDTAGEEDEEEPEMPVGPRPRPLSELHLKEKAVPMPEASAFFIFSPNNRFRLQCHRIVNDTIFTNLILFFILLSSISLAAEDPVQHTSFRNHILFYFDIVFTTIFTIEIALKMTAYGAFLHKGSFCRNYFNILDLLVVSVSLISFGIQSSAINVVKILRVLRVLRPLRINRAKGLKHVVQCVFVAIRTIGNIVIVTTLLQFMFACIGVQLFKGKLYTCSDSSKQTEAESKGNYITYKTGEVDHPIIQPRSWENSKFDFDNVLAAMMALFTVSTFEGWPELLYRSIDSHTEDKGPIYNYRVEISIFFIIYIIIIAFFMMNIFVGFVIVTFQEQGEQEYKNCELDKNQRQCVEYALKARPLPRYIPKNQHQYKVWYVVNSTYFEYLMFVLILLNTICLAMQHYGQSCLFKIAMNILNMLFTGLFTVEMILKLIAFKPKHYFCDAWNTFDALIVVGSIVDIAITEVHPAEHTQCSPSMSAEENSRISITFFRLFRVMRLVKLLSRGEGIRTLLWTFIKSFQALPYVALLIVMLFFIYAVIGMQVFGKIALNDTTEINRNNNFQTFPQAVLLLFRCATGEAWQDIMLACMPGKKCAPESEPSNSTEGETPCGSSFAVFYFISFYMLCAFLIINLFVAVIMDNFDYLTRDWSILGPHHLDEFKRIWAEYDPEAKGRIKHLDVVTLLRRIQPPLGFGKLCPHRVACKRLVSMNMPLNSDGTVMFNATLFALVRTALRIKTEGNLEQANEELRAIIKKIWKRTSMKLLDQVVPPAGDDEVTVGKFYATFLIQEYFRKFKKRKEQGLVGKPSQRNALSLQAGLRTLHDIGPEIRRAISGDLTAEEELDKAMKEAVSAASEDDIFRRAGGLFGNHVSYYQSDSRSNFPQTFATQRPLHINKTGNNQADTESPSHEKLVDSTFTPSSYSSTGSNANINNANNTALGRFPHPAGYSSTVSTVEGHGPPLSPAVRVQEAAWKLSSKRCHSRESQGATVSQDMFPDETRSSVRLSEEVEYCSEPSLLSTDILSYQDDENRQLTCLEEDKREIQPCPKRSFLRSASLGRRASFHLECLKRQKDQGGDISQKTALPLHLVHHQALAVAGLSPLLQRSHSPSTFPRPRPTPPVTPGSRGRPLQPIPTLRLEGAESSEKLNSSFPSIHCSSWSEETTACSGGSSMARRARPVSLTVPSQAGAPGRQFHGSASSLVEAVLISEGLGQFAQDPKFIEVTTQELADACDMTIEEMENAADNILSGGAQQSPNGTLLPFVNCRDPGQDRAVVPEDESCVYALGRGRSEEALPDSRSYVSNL
# T1 sequence (P54290 25-1091 partner): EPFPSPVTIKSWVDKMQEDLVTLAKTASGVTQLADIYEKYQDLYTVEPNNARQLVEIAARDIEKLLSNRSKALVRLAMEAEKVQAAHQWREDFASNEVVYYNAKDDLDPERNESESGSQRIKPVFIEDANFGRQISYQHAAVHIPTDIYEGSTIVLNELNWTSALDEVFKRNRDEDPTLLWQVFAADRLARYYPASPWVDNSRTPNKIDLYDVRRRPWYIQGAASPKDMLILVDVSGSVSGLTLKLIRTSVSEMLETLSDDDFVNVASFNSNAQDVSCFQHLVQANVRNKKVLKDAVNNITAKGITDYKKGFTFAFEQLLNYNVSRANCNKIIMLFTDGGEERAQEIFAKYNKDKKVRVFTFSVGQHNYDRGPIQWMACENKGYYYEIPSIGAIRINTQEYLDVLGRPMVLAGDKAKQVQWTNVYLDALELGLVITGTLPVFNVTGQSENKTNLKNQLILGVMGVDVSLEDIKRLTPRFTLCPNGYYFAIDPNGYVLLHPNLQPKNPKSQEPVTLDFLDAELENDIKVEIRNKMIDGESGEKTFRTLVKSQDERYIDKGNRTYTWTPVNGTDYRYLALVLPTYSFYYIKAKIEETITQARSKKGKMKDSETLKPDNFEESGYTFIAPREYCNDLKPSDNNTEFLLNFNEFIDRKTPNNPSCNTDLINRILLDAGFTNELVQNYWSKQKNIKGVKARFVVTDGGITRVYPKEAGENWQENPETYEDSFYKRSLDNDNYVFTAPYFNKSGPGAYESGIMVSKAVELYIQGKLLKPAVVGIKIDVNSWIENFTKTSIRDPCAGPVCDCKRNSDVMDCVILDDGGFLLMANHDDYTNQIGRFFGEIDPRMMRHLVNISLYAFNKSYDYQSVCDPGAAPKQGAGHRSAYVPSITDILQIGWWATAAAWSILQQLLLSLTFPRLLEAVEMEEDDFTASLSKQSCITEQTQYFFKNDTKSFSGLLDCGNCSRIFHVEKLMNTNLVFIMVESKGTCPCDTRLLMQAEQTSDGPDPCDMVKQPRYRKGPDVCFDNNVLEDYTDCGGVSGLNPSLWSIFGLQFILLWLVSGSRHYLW
# Experimental: The calcium channel blocking activity of the compounds was tested using a helically cut rat aortic strip in Krebs-Henselheit solution at 37° C., bubbled with a mixture of 95% O2 and 5% CO2. The isometrically registered contractions were induced by K^(+). depolarization. The test compounds were applied in a cumulative doses and the vasodilating activity thereof was expressed in calculated concentration of the test compound, causing 50% decrease of contraction of the aortic strip (IC50).
# [1] = system: rat peripheral venous thrombosis; assay: Antithrombotic activity, rat peripheral venous thrombosis in closed abdominal part of vena cava; type: in vivo; conditions: rats, read-out: statistically significant effective dose (mass of thrombi)
# Experimental: The antithrombotic activity of the test compounds was established using the model of rat peripheral venous thrombosis in a closed abdominal part of vena cava. The thrombus was induced by intravenous administration of hypotonic solution of sodium chloride. The thrombus was freed 10 minutes after induction and weighted. The mass of thrombi in control animals was compared to the mass of thrombi of animals administered by the test compound. The statistically significant effective dose for compound VUFB 17951 was 0.5 mg/kg intravenously and 5 mg/kg orally and for the compound VUFB 17959 0.25 mg/kg and 1.0 mg/kg, respectively. The corresponding dose of a standard (Cilostazol, generic name, Merck index, 11th Edition, 2277) was 25 mg/kg orally.
# blood pressure = assay: Hypotensive activity, conscious monkeys; type: in vivo, Macaca mulatta
# Experimental: c) The blood pressure of conscious monkeys (Macaca mulatta) was measured non-invasively on the arm. The average decrease in systolic (SBP) and diastolic (DBP) blood pressure after intravenous and oral administration was expressed in per cents of the starting blood pressure.
structure (smiles),measurement,setting,value
"COc1ccc(C(C#N)(CCCNCC2COc3ccccc3O2)C(C)C)cc1OC (racemic) [VUFB 17951, 5-(2,3-Dihydro-1,4-benzodioxin-2-ylmethylamino)-2-(3,4-dimethoxyphenyl)-2-isopropyl valeronitrile]",pIC50,calcium channel,4.74
same,minimal effective dose,"[1]; iv, intravenously",0.5 mg/kg
same,minimal effective dose,"[1]; po, orally",5 mg/kg
same,decrease in diastolic blood pressure (DBP),"blood pressure; i.v., 0.25 mg/kg, 1 min",-49 per cents
same,decrease in systolic blood pressure (SBP),"blood pressure; i.v., 0.25 mg/kg, 1 min",-37 per cents
same,decrease in diastolic blood pressure (DBP),"blood pressure; i.v., 0.25 mg/kg, 5 min",-50 per cents
same,decrease in systolic blood pressure (SBP),"blood pressure; i.v., 0.25 mg/kg, 5 min",-45 per cents
same,decrease in diastolic blood pressure (DBP),"blood pressure; i.v., 0.25 mg/kg, 30 min",-31 per cents
same,decrease in systolic blood pressure (SBP),"blood pressure; i.v., 0.25 mg/kg, 30 min",-28 per cents
same,decrease in diastolic blood pressure (DBP),"blood pressure; i.v., 0.25 mg/kg, 60 min",-17 per cents
same,decrease in systolic blood pressure (SBP),"blood pressure; i.v., 0.25 mg/kg, 60 min",-11 per cents
same,decrease in diastolic blood pressure (DBP),"blood pressure; i.v., 0.25 mg/kg, 180 min",-18 per cents
same,decrease in systolic blood pressure (SBP),"blood pressure; i.v., 0.25 mg/kg, 180 min",-8 per cents
same,decrease in diastolic blood pressure (DBP),"blood pressure; i.v., 1.0 mg/kg, 1 min",-58 per cents
same,decrease in systolic blood pressure (SBP),"blood pressure; i.v., 1.0 mg/kg, 1 min",-50 per cents
same,decrease in diastolic blood pressure (DBP),"blood pressure; i.v., 1.0 mg/kg, 5 min",-60 per cents
same,decrease in systolic blood pressure (SBP),"blood pressure; i.v., 1.0 mg/kg, 5 min",-53 per cents
same,decrease in diastolic blood pressure (DBP),"blood pressure; i.v., 1.0 mg/kg, 30 min",-46 per cents
same,decrease in systolic blood pressure (SBP),"blood pressure; i.v., 1.0 mg/kg, 30 min",-39 per cents
same,decrease in diastolic blood pressure (DBP),"blood pressure; i.v., 1.0 mg/kg, 60 min",-30 per cents
same,decrease in systolic blood pressure (SBP),"blood pressure; i.v., 1.0 mg/kg, 60 min",-29 per cents
same,decrease in diastolic blood pressure (DBP),"blood pressure; i.v., 1.0 mg/kg, 180 min",-23 per cents
same,decrease in systolic blood pressure (SBP),"blood pressure; i.v., 1.0 mg/kg, 180 min",-19 per cents
same,decrease in diastolic blood pressure (DBP),"blood pressure; p.o., 10.0 mg/kg, 5-6 hours",-29 per cents
same,decrease in systolic blood pressure (SBP),"blood pressure; p.o., 10.0 mg/kg, 5-6 hours",-23 per cents
same,decrease in diastolic blood pressure (DBP),"blood pressure; p.o., 10.0 mg/kg, 0.5 hours",-30 per cents
same,decrease in systolic blood pressure (SBP),"blood pressure; p.o., 10.0 mg/kg, 0.5 hours",-26 per cents
same,decrease in diastolic blood pressure (DBP),"blood pressure; p.o., 10.0 mg/kg, 1 hours",-27 per cents
same,decrease in systolic blood pressure (SBP),"blood pressure; p.o., 10.0 mg/kg, 1 hours",-24 per cents
same,decrease in diastolic blood pressure (DBP),"blood pressure; p.o., 10.0 mg/kg, 3 hours",-26 per cents
same,decrease in systolic blood pressure (SBP),"blood pressure; p.o., 10.0 mg/kg, 3 hours",-21 per cents
same,decrease in diastolic blood pressure (DBP),"blood pressure; p.o., 10.0 mg/kg, 24 hours",-11 per cents
same,decrease in systolic blood pressure (SBP),"blood pressure; p.o., 10.0 mg/kg, 24 hours",-9 per cents
"Cc1ccccc1C(C#N)(CCCNCC1COc2ccccc2O1)C(C)C (racemic) [VUFB 17959, 5-(2,3-dihydro-1,4-benzodioxin-2-ylmethylamino)-2-isopropyl-2-(2-methylphenyl) valeronitrile]",pIC50,calcium channel,4.80
same,minimal effective dose,"[1]; iv, intravenously",0.25 mg/kg
same,minimal effective dose,"[1]; po, orally",1 mg/kg
same,decrease in diastolic blood pressure (DBP),"blood pressure; i.v., 0.25 mg/kg, 1 min",-4 per cents
same,decrease in systolic blood pressure (SBP),"blood pressure; i.v., 0.25 mg/kg, 1 min",-1 per cents
same,decrease in diastolic blood pressure (DBP),"blood pressure; i.v., 0.25 mg/kg, 5 min",-16 per cents
same,decrease in systolic blood pressure (SBP),"blood pressure; i.v., 0.25 mg/kg, 5 min",-12 per cents
same,decrease in diastolic blood pressure (DBP),"blood pressure; i.v., 0.25 mg/kg, 30 min",-24 per cents
same,decrease in systolic blood pressure (SBP),"blood pressure; i.v., 0.25 mg/kg, 30 min",-22 per cents
same,decrease in diastolic blood pressure (DBP),"blood pressure; i.v., 0.25 mg/kg, 60 min",-20 per cents
same,decrease in systolic blood pressure (SBP),"blood pressure; i.v., 0.25 mg/kg, 60 min",-17 per cents
same,decrease in diastolic blood pressure (DBP),"blood pressure; i.v., 0.25 mg/kg, 180 min",-7 per cents
same,decrease in systolic blood pressure (SBP),"blood pressure; i.v., 0.25 mg/kg, 180 min",-5 per cents
same,decrease in diastolic blood pressure (DBP),"blood pressure; i.v., 1.0 mg/kg, 1 min",-34 per cents
same,decrease in systolic blood pressure (SBP),"blood pressure; i.v., 1.0 mg/kg, 1 min",-28 per cents
same,decrease in diastolic blood pressure (DBP),"blood pressure; i.v., 1.0 mg/kg, 5 min",-38 per cents
same,decrease in systolic blood pressure (SBP),"blood pressure; i.v., 1.0 mg/kg, 5 min",-31 per cents
same,decrease in diastolic blood pressure (DBP),"blood pressure; i.v., 1.0 mg/kg, 30 min",-42 per cents
same,decrease in systolic blood pressure (SBP),"blood pressure; i.v., 1.0 mg/kg, 30 min",-31 per cents
same,decrease in diastolic blood pressure (DBP),"blood pressure; i.v., 1.0 mg/kg, 60 min",-27 per cents
same,decrease in systolic blood pressure (SBP),"blood pressure; i.v., 1.0 mg/kg, 60 min",-24 per cents
same,decrease in diastolic blood pressure (DBP),"blood pressure; i.v., 1.0 mg/kg, 180 min",-14 per cents
same,decrease in systolic blood pressure (SBP),"blood pressure; i.v., 1.0 mg/kg, 180 min",-8 per cents
same,decrease in diastolic blood pressure (DBP),"blood pressure; p.o., 10.0 mg/kg, 5-6 hours",-10 per cents
same,decrease in systolic blood pressure (SBP),"blood pressure; p.o., 10.0 mg/kg, 5-6 hours",-11 per cents
same,decrease in diastolic blood pressure (DBP),"blood pressure; p.o., 10.0 mg/kg, 0.5 hours",-16 per cents
same,decrease in systolic blood pressure (SBP),"blood pressure; p.o., 10.0 mg/kg, 0.5 hours",-20 per cents
same,decrease in diastolic blood pressure (DBP),"blood pressure; p.o., 10.0 mg/kg, 1 hours",-15 per cents
same,decrease in systolic blood pressure (SBP),"blood pressure; p.o., 10.0 mg/kg, 1 hours",-15 per cents
same,decrease in diastolic blood pressure (DBP),"blood pressure; p.o., 10.0 mg/kg, 3 hours",-16 per cents
same,decrease in systolic blood pressure (SBP),"blood pressure; p.o., 10.0 mg/kg, 3 hours",-17 per cents
same,decrease in diastolic blood pressure (DBP),"blood pressure; p.o., 10.0 mg/kg, 24 hours",+5 per cents
same,decrease in systolic blood pressure (SBP),"blood pressure; p.o., 10.0 mg/kg, 24 hours",+1 per cents
